Data: ChEMBL document CHEMBL1133866, “Discovery of human CCR5 antagonists containing hydantoins for the treatment of HIV-1 infection” (Bioorg Med Chem Lett, 2001)
One block for each compound: values may come before it.

How the values were obtained:
[1] = target: T1, C-C chemokine receptor type 5 (Homo sapiens, UniProt P51681); test: Percent inhibition of the [125I]-MIP-1 alpha binding towards C-C chemokine receptor type 5 stably expressed in Chinese hamster ovary (CHO) cells at a concentration of 1 uM; assay type: cell-based
Target sequence in this assay (P51681 whole entry, looked up): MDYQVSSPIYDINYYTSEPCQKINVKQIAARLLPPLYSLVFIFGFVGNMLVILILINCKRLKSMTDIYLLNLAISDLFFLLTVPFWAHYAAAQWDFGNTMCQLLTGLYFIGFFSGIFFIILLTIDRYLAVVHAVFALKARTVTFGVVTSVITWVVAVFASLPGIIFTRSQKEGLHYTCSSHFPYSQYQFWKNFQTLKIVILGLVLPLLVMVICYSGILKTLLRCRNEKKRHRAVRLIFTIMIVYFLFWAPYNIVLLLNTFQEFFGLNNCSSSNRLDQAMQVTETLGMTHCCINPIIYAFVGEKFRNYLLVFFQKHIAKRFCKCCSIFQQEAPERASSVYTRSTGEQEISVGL

[2] = target: T2, C-C chemokine receptor type 3 (Homo sapiens, UniProt P51677); test: Inhibitory activity against C-C chemokine receptor type 3
T2 sequence (P51677 whole entry): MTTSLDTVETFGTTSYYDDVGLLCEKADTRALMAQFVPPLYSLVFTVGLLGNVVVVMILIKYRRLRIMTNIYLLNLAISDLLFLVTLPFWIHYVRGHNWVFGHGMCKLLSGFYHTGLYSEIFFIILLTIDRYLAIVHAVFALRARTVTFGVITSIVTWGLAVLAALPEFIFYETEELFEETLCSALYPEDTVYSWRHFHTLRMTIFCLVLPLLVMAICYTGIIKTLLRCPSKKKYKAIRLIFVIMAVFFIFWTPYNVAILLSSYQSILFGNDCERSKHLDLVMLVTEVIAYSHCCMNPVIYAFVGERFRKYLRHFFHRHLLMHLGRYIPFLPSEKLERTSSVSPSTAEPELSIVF

[3] = target: T3, C-C chemokine receptor type 4 (Homo sapiens, UniProt P51679); test: Inhibitory activity against C-C chemokine receptor type 4
T3 sequence (P51679 whole entry): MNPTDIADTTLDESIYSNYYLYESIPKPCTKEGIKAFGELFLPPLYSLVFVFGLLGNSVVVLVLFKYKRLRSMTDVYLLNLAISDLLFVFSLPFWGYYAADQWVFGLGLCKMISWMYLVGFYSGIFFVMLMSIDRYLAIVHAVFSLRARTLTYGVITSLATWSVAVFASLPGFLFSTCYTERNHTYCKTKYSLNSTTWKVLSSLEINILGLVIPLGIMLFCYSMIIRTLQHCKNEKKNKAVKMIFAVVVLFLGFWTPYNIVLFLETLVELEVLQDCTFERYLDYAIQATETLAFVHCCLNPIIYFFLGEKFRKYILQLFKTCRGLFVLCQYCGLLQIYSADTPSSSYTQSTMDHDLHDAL

[4] = target: C-X-C chemokine receptor type 4 (Homo sapiens, UniProt P61073); test: Inhibitory activity against C-X-C chemokine receptor type 4
[5] = target: T4, C-C chemokine receptor type 1 (Homo sapiens, UniProt P32246); test: Inhibitory activity against C-C chemokine receptor type 1
T4 sequence (P32246 whole entry): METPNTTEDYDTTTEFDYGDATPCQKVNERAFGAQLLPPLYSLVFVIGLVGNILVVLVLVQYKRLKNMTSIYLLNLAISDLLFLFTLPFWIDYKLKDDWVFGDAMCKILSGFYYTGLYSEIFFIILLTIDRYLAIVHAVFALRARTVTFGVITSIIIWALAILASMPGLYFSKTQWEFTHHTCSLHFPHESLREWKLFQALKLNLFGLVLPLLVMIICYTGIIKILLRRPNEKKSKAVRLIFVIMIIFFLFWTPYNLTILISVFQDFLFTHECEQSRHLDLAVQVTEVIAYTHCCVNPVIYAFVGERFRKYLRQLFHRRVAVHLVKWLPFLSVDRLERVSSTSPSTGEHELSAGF

[6] = target: C-C chemokine receptor type 2 (Homo sapiens, UniProt P41597); test: Inhibitory activity against C-C chemokine receptor type 2
[7] = target: T1, C-C chemokine receptor type 5; test: Binding affinity against C-C chemokine receptor type 5 stably expressed in Chinese hamster ovary (CHO) cells using [125I]-MIP-1 alpha as the radioligand; assay type: cell-based
Target sequence in this assay (P51681 whole entry): as the sequence (P51681 whole entry, looked up) above

[8] = tested on: Human immunodeficiency virus 1; test: Antiviral activity against HIV-1 viral replication in isolated peripheral blood mononuclear cells (PBMCs).; assay type: functional
[9] = target: T1, C-C chemokine receptor type 5; test: Percent inhibition of the [125I]-MIP-1 alpha binding towards C-C chemokine receptor type 5 stably expressed in Chinese hamster ovary (CHO) cells at a concentration of 10 uM; assay type: cell-based
Target sequence in this assay (P51681 whole entry, looked up): as the sequence (P51681 whole entry, looked up) above

[10] = target: T1, C-C chemokine receptor type 5; test: Percent inhibition of the [125I]-MIP-1 alpha binding towards C-C chemokine receptor type 5 stably expressed in Chinese hamster ovary (CHO) cells at a concentration of 1.7 uM; assay type: cell-based
Target sequence in this assay (P51681 whole entry, looked up): as the sequence (P51681 whole entry, looked up) above

C-X-C chemokine receptor type 4, sequence (P61073 whole entry): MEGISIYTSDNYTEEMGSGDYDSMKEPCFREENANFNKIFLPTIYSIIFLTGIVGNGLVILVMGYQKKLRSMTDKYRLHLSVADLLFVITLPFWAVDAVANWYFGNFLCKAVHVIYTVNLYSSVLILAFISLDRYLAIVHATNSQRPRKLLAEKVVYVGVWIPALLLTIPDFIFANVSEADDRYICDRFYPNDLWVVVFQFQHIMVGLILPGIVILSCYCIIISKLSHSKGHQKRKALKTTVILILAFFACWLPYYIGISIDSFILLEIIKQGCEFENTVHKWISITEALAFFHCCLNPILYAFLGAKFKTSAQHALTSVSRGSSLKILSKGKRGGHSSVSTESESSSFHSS
C-C chemokine receptor type 2, sequence (P41597 whole entry): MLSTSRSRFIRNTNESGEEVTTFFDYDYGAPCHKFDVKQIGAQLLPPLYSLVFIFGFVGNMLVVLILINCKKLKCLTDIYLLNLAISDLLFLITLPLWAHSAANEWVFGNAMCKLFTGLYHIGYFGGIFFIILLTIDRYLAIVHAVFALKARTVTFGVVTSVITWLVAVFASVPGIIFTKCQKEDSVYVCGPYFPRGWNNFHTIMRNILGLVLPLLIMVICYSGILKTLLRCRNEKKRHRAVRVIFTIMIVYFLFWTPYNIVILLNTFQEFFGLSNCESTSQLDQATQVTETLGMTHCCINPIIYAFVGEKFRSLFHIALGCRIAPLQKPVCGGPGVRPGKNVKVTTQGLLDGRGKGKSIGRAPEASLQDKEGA

SMILES: CCN(C(=O)OCc1ccccc1)C1CCN(CCC(C)(CN2C(=O)N[C@H](Cc3c[nH]c4ccccc34)C2=O)c2ccccc2)CC1 (stereo partly drawn)
IC50 [2]: > 1000 nM
IC50 [3]: > 1000 nM
IC50 [4]: > 1000 nM
IC50 [5]: > 1000 nM
IC50 [6]: > 1000 nM
IC50 [7]: 4 nM
IC95 [8]: 12500 nM

SMILES: C[C@H]1NC(=O)N(CC(CCN2CCC(c3ccccc3)CC2)c2cccc(Cl)c2)C1=O (stereo partly drawn)
inhibition [9]: 43%

SMILES: C=CCN(C(=O)OCc1ccccc1)C1CCN(CCC(CN2C(=O)N[C@H](Cc3c[nH]c4ccccc34)C2=O)c2ccccc2)CC1 (stereo partly drawn)
IC50 [2]: > 1000 nM
IC50 [3]: > 1000 nM
IC50 [4]: > 1000 nM
IC50 [5]: > 1000 nM
IC50 [6]: > 1000 nM
IC50 [7]: 7 nM
IC95 [8]: > 3000 nM

SMILES: CC(CCN1CCC(c2ccccc2)CC1)(CN1C(=O)N[C@H](Cc2c[nH]c3ccccc23)C1=O)c1cccc(Cl)c1 (stereo partly drawn)
IC50 [7]: 100 nM

SMILES: O=C1CC2(CCN(CCC(CN3C(=O)N[C@@H](c4ccccc4)C3=O)c3cccc(Cl)c3)CC2)c2ccccc21 (stereo partly drawn)
inhibition [1]: 52%

SMILES: C=CCN(C(=O)OCc1ccccc1)C1CCN(CCC(C)(CN2C(=O)N[C@H](Cc3c[nH]c4ccccc34)C2=O)c2cccc(Cl)c2)CC1 (stereo partly drawn)
IC50 [2]: > 1000 nM
IC50 [3]: > 1000 nM
IC50 [4]: > 1000 nM
IC50 [5]: > 1000 nM
IC50 [6]: > 1000 nM
IC50 [7]: 32 nM

SMILES: O=C1N[C@H](Cc2c[nH]c3ccccc23)C(=O)N1CC(CCN1CCC(c2ccccc2)CC1)c1ccccc1 (stereo in doubt; 24)
inhibition [1]: 71%

SMILES: O=C1[C@@H](Cc2ccccc2)N(Cc2ccccc2)C(=O)N1CC(CCN1CCC(c2ccccc2)CC1)c1cccc(Cl)c1 (stereo partly drawn)
inhibition [1]: 40%

SMILES: CCN(C(=O)OCc1ccccc1)C1CCN(CCC(C)(CN2C(=O)N[C@H](Cc3c[nH]c4ccccc34)C2=O)c2cccc(Cl)c2)CC1 (stereo partly drawn)
IC50 [7]: 77 nM

SMILES: O=C1CC2(CCN(CCC(CN3C(=O)N[C@H](c4ccccc4)C3=O)c3cccc(Cl)c3)CC2)c2ccccc21 (stereo partly drawn)
IC50 [7]: 606 nM

SMILES: C=CCN(C(=O)OCc1ccccc1)C1CCN(CCC(CN2C(=O)N[C@H](Cc3c[nH]c4ccccc34)C2=O)c2cccc(Cl)c2)CC1 (stereo partly drawn)
IC50 [2]: > 1000 nM
IC50 [3]: > 1000 nM
IC50 [4]: > 1000 nM
IC50 [5]: > 1000 nM
IC50 [6]: > 1000 nM
IC50 [7]: 3 nM
IC95 [8]: 12500 nM

SMILES: O=C1N[C@H](Cc2c[nH]c3ccccc23)C(=O)N1CC(CCN1CCC(c2ccccc2)CC1)c1ccccc1 (stereo in doubt; 22)
inhibition [1]: 71%

SMILES: CCN(C(=O)OCc1ccccc1)C1CCN(CCC(CN2C(=O)N[C@H](Cc3c[nH]c4ccccc34)C2=O)c2ccccc2)CC1 (stereo partly drawn)
IC50 [2]: > 1000 nM
IC50 [3]: > 1000 nM
IC50 [4]: > 1000 nM
IC50 [5]: > 1000 nM
IC50 [6]: > 1000 nM
IC50 [7]: 13 nM
IC95 [8]: 25000 nM

SMILES: O=C1N[C@H](Cc2c[nH]cn2)C(=O)N1CC(CCN1CCC(c2ccccc2)CC1)c1ccccc1 (stereo partly drawn)
inhibition [1]: 25%

SMILES: C=CCN(C(=O)OCc1ccccc1)C1CCN(CCC(C)(CN2C(=O)N[C@H](Cc3c[nH]c4ccccc34)C2=O)c2ccccc2)CC1 (stereo partly drawn)
IC50 [2]: > 1000 nM
IC50 [3]: > 1000 nM
IC50 [4]: > 1000 nM
IC50 [5]: > 1000 nM
IC50 [6]: > 1000 nM
IC50 [7]: 5 nM
IC95 [8]: > 3000 nM

SMILES: CC(CCN1CCC(c2ccccc2)CC1)(CN1C(=O)N[C@H](Cc2c[nH]c3ccccc23)C1=O)c1ccccc1 (stereo partly drawn)
inhibition [1]: 80%

The next lines start with results.

inhibition [1]: 55%
SMILES: CS(=O)(=O)N1CC2(CCN(CCC(CN3C(=O)N[C@H](Cc4ccccc4)C3=O)c3cccc(Cl)c3)CC2)c2ccccc21 (stereo partly drawn)

IC50 [7]: 200 nM
SMILES: O=C1CC2(CCN(CCC(CN3C(=O)N[C@H](Cc4ccccc4)C3=O)c3cccc(Cl)c3)CC2)c2ccccc21 (stereo partly drawn)

inhibition [1]: 52%
SMILES: CN1C(=O)N(CC(CCN2CCC(c3ccccc3)CC2)c2cccc(Cl)c2)C(=O)[C@H]1Cc1ccccc1 (stereo partly drawn)

IC50 [7]: 80 nM
SMILES: O=C1N[C@H](Cc2c[nH]c3ccccc23)C(=O)N1CC(CCN1CCC(c2ccccc2)CC1)c1cccc(Cl)c1 (single isomer, unassigned)

IC50 [7]: 250 nM
SMILES: O=C1N[C@H](Cc2ccccc2)C(=O)N1CC(CCN1CCC(c2ccccc2)CC1)c1cccc(Cl)c1 (stereo partly drawn)

IC50 [7]: 25 nM
SMILES: O=C1N[C@H](Cc2c[nH]c3ccccc23)C(=O)N1CC(CCN1CCC(c2ccccc2)CC1)c1cccc(Cl)c1 (stereo in doubt)

IC50 [2]: > 1000 nM
IC50 [3]: > 1000 nM
IC50 [4]: > 1000 nM
IC50 [5]: > 1000 nM
IC50 [6]: > 1000 nM
IC50 [7]: 2 nM
SMILES: CCN(C(=O)OCc1ccccc1)C1CCN(CCC(CN2C(=O)N[C@H](Cc3c[nH]c4ccccc34)C2=O)c2cccc(Cl)c2)CC1 (stereo partly drawn)
IC95 [8]: 12500 nM

inhibition [1]: 67%
SMILES: O=C1N[C@H](Cc2csc3ccccc23)C(=O)N1CC(CCN1CCC(c2ccccc2)CC1)c1cccc(Cl)c1 (stereo partly drawn)

inhibition [1]: 43%
SMILES: Cn1cc(C[C@H]2NC(=O)N(CC(CCN3CCC(c4ccccc4)CC3)c3cccc(Cl)c3)C2=O)c2ccccc21 (stereo partly drawn)

inhibition [10]: 24%
SMILES: O=C1N[C@H](Cc2ccccc2)C(=O)N1CC(CCN1CCC2(CC1)CSc1ccccc12)c1cccc(Cl)c1 (stereo partly drawn)

inhibition [10]: 39%
SMILES: O=C1N[C@H](Cc2ccccc2)C(=O)N1CC(CCN1CCC2(CC1)C[S+]([O-])c1ccccc12)c1cccc(Cl)c1 (stereo partly drawn)
